Data from PubChem BioAssay (NCI).
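Test compounds were applied to cells in 96-well plates for 48 hours at 5 doses. Definition used: TGI = concentration required for complete inhibition of growth.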

The compounds below were run on LOX IMVI melanoma (assay: inhibition of tumour cell growth, NCI panel, 48 h).

SMILES	TGI [µM]
C=C1C(=O)C=C[C@]2(C)CC[C@H]3C(=C)C(=O)O[C@@H]3[C@@H]12	3.94
O=C1/C(=C/c2ccc(Cl)cc2)CSc2ccccc21	6.21
CSc1ncnc2c1ncn2CCC#N	> 100
CC(=O)OCC1OC(n2c3c(cc(C#N)c2=S)CCCCC3)C(OC(C)=O)C(OC(C)=O)C1OC(C)=O (stereo not drawn)	> 100
NC(CCC(=O)NC(CSCC1C(=O)Nc2ccccc21)C(=O)NCC(=O)O)C(=O)O (stereo not drawn)	2.78
[N-]=[N+]=NC1=C(c2ccccn2)C(=O)c2cccc3cccc1c23	> 100
O=C(O)c1ccc(OCc2nc3cc(C(F)(F)F)ccc3nc2-c2ccccc2)cc1	> 100
CC1=C(CO)C(=O)O[C@@H]([C@@H](CO)[C@H]2CCC3C4C[C@@H](O)[C@@]5(O)CC=CC(=O)[C@]5(C)C4CC[C@@]32C)C1 (stereo partly drawn)	> 100
CSc1cnc2ccccc2c1SC1CN(Cc2ccccc2)c2ccccc2C1=O (stereo not drawn)	> 100
C=C1CN2CC(=C)CN(C1)CS(=O)(=O)N1CC(=C)CN(CC(=C)C1)S(=O)(=O)N1CC(=C)CN(CC(=C)C1)S(=O)(=O)C2	> 100
O=C(O)/C=c1/c2ccccc2n2nc3ccccc3c12	78
C=C(Cl)C(C)(Cl)CCC(Br)C(C)(C)Cl (stereo not drawn)	28
O=C1c2ccccc2C2(c3ccc(Cl)cc3)N[C@H]3CCCC[C@@H]3N12 (stereo partly drawn)	> 100
COc1ccc2c(cnc3c4cc(OC)c(OC)cc4ccc23)c1	> 100
Cn1c(COC(=O)Nc2ccccc2)c(COC(=O)Nc2ccccc2)c2ccc3cc(Cl)c(Cl)cc3c21	13.5
C=CCOc1ccc(C2C(C(=O)OCC)C(=O)CC(C)(O)C2C(=O)OCC)cc1OC (stereo not drawn)	> 100
CC(C)=CCNc1ncnc2c1ncn2CCC#N	> 100

Each compound was assayed on TK-10 renal (assay: inhibition of tumour cell growth, NCI panel, 48 h).

SMILES	TGI [µM]
C=C1C(=O)C=C[C@]2(C)CC[C@H]3C(=C)C(=O)O[C@@H]3[C@@H]12	1.98
O=C1/C(=C/c2ccc(Cl)cc2)CSc2ccccc21	> 100
CSc1ncnc2c1ncn2CCC#N	> 100
CC(C)(Cl)C(Br)CCC(=CCCl)CBr (mixture of isomers)	5.21
CC(=O)OCC1OC(n2c3c(cc(C#N)c2=S)CCCCC3)C(OC(C)=O)C(OC(C)=O)C1OC(C)=O (stereo not drawn)	> 100
NC(CCC(=O)NC(CSCC1C(=O)Nc2ccccc21)C(=O)NCC(=O)O)C(=O)O (stereo not drawn)	18.9
[N-]=[N+]=NC1=C(c2ccccn2)C(=O)c2cccc3cccc1c23	> 100
O=C(O)c1ccc(OCc2nc3cc(C(F)(F)F)ccc3nc2-c2ccccc2)cc1	> 100
CC1=C(CO)C(=O)O[C@@H]([C@@H](CO)[C@H]2CCC3C4C[C@@H](O)[C@@]5(O)CC=CC(=O)[C@]5(C)C4CC[C@@]32C)C1 (stereo partly drawn)	> 100
CSc1cnc2ccccc2c1SC1CN(Cc2ccccc2)c2ccccc2C1=O (stereo not drawn)	> 100
C=C1CN2CC(=C)CN(C1)CS(=O)(=O)N1CC(=C)CN(CC(=C)C1)S(=O)(=O)N1CC(=C)CN(CC(=C)C1)S(=O)(=O)C2	51.5
O=C(O)/C=c1/c2ccccc2n2nc3ccccc3c12	> 100
C=CC[C@]12C=C(OC)[C@@H](O)[C@](OC)(C(c3cc(OC)c4c(c3)OCO4)[C@H]1C)[C@H]2OC(C)=O (stereo partly drawn)	> 100
C=C(Cl)C(C)(Cl)CCC(Br)C(C)(C)Cl (stereo not drawn)	> 100
O=C1c2ccccc2C2(c3ccc(Cl)cc3)N[C@H]3CCCC[C@@H]3N12 (stereo partly drawn)	> 100
COc1ccc2c(cnc3c4cc(OC)c(OC)cc4ccc23)c1	> 100
Cn1c(COC(=O)Nc2ccccc2)c(COC(=O)Nc2ccccc2)c2ccc3cc(Cl)c(Cl)cc3c21	22.7
CCNC(=O)Nc1cccc(NC(=O)NCC)n1	> 100
C=CCOc1ccc(C2C(C(=O)OCC)C(=O)CC(C)(O)C2C(=O)OCC)cc1OC (stereo not drawn)	> 100
CC(C)=CCNc1ncnc2c1ncn2CCC#N	> 100

Each compound was assayed on SK-OV-3 ovarian (assay: inhibition of tumour cell growth, NCI panel, 48 h).

SMILES	TGI [µM]
C=C1C(=O)C=C[C@]2(C)CC[C@H]3C(=C)C(=O)O[C@@H]3[C@@H]12	21.2
O=C1/C(=C/c2ccc(Cl)cc2)CSc2ccccc21	> 100
CSc1ncnc2c1ncn2CCC#N	> 100
CC(C)(Cl)C(Br)CCC(=CCCl)CBr (mixture of isomers)	31.2
NC(CCC(=O)NC(CSCC1C(=O)Nc2ccccc21)C(=O)NCC(=O)O)C(=O)O (stereo not drawn)	> 49.4
[N-]=[N+]=NC1=C(c2ccccn2)C(=O)c2cccc3cccc1c23	> 100
CC1=C(CO)C(=O)O[C@@H]([C@@H](CO)[C@H]2CCC3C4C[C@@H](O)[C@@]5(O)CC=CC(=O)[C@]5(C)C4CC[C@@]32C)C1 (stereo partly drawn)	> 100
CSc1cnc2ccccc2c1SC1CN(Cc2ccccc2)c2ccccc2C1=O (stereo not drawn)	> 100
O=C(O)/C=c1/c2ccccc2n2nc3ccccc3c12	65.7
C=CC[C@]12C=C(OC)[C@@H](O)[C@](OC)(C(c3cc(OC)c4c(c3)OCO4)[C@H]1C)[C@H]2OC(C)=O (stereo partly drawn)	> 100
C=C(Cl)C(C)(Cl)CCC(Br)C(C)(C)Cl (stereo not drawn)	39.2
O=C1c2ccccc2C2(c3ccc(Cl)cc3)N[C@H]3CCCC[C@@H]3N12 (stereo partly drawn)	> 100
COc1ccc2c(cnc3c4cc(OC)c(OC)cc4ccc23)c1	> 100
Cn1c(COC(=O)Nc2ccccc2)c(COC(=O)Nc2ccccc2)c2ccc3cc(Cl)c(Cl)cc3c21	> 75
CCNC(=O)Nc1cccc(NC(=O)NCC)n1	> 100
CC(C)=CCNc1ncnc2c1ncn2CCC#N	> 100

Each compound was assayed on OVCAR-3 ovarian (assay: inhibition of tumour cell growth, NCI panel, 48 h).

SMILES	TGI [µM]
C=C1C(=O)C=C[C@]2(C)CC[C@H]3C(=C)C(=O)O[C@@H]3[C@@H]12	11.1
O=C1/C(=C/c2ccc(Cl)cc2)CSc2ccccc21	49.1
CSc1ncnc2c1ncn2CCC#N	> 100
CC(C)(Cl)C(Br)CCC(=CCCl)CBr (mixture of isomers)	3.9
CC(=O)OCC1OC(n2c3c(cc(C#N)c2=S)CCCCC3)C(OC(C)=O)C(OC(C)=O)C1OC(C)=O (stereo not drawn)	> 100
NC(CCC(=O)NC(CSCC1C(=O)Nc2ccccc21)C(=O)NCC(=O)O)C(=O)O (stereo not drawn)	11.2
[N-]=[N+]=NC1=C(c2ccccn2)C(=O)c2cccc3cccc1c23	> 100
O=C(O)c1ccc(OCc2nc3cc(C(F)(F)F)ccc3nc2-c2ccccc2)cc1	> 100
CC1=C(CO)C(=O)O[C@@H]([C@@H](CO)[C@H]2CCC3C4C[C@@H](O)[C@@]5(O)CC=CC(=O)[C@]5(C)C4CC[C@@]32C)C1 (stereo partly drawn)	83.9
CSc1cnc2ccccc2c1SC1CN(Cc2ccccc2)c2ccccc2C1=O (stereo not drawn)	> 100
C=C1CN2CC(=C)CN(C1)CS(=O)(=O)N1CC(=C)CN(CC(=C)C1)S(=O)(=O)N1CC(=C)CN(CC(=C)C1)S(=O)(=O)C2	> 100
O=C(O)/C=c1/c2ccccc2n2nc3ccccc3c12	> 100
C=CC[C@]12C=C(OC)[C@@H](O)[C@](OC)(C(c3cc(OC)c4c(c3)OCO4)[C@H]1C)[C@H]2OC(C)=O (stereo partly drawn)	> 100
C=C(Cl)C(C)(Cl)CCC(Br)C(C)(C)Cl (stereo not drawn)	32.4
O=C1c2ccccc2C2(c3ccc(Cl)cc3)N[C@H]3CCCC[C@@H]3N12 (stereo partly drawn)	> 100
COc1ccc2c(cnc3c4cc(OC)c(OC)cc4ccc23)c1	> 100
Cn1c(COC(=O)Nc2ccccc2)c(COC(=O)Nc2ccccc2)c2ccc3cc(Cl)c(Cl)cc3c21	21.6
CCNC(=O)Nc1cccc(NC(=O)NCC)n1	> 100
C=CCOc1ccc(C2C(C(=O)OCC)C(=O)CC(C)(O)C2C(=O)OCC)cc1OC (stereo not drawn)	> 100
CC(C)=CCNc1ncnc2c1ncn2CCC#N	> 100

What follows are compounds tested on OVCAR-8 ovarian (assay: inhibition of tumour cell growth, NCI panel, 48 h).

SMILES	TGI [µM]
C=C1C(=O)C=C[C@]2(C)CC[C@H]3C(=C)C(=O)O[C@@H]3[C@@H]12	17.2
O=C1/C(=C/c2ccc(Cl)cc2)CSc2ccccc21	> 100
CSc1ncnc2c1ncn2CCC#N	> 100
CC(C)(Cl)C(Br)CCC(=CCCl)CBr (mixture of isomers)	5.26
CC(=O)OCC1OC(n2c3c(cc(C#N)c2=S)CCCCC3)C(OC(C)=O)C(OC(C)=O)C1OC(C)=O (stereo not drawn)	> 100
NC(CCC(=O)NC(CSCC1C(=O)Nc2ccccc21)C(=O)NCC(=O)O)C(=O)O (stereo not drawn)	13.4
O=C(O)c1ccc(OCc2nc3cc(C(F)(F)F)ccc3nc2-c2ccccc2)cc1	> 100
CC1=C(CO)C(=O)O[C@@H]([C@@H](CO)[C@H]2CCC3C4C[C@@H](O)[C@@]5(O)CC=CC(=O)[C@]5(C)C4CC[C@@]32C)C1 (stereo partly drawn)	> 100
C=C1CN2CC(=C)CN(C1)CS(=O)(=O)N1CC(=C)CN(CC(=C)C1)S(=O)(=O)N1CC(=C)CN(CC(=C)C1)S(=O)(=O)C2	> 100
O=C(O)/C=c1/c2ccccc2n2nc3ccccc3c12	60.8
C=CC[C@]12C=C(OC)[C@@H](O)[C@](OC)(C(c3cc(OC)c4c(c3)OCO4)[C@H]1C)[C@H]2OC(C)=O (stereo partly drawn)	> 100
O=C1c2ccccc2C2(c3ccc(Cl)cc3)N[C@H]3CCCC[C@@H]3N12 (stereo partly drawn)	> 100
COc1ccc2c(cnc3c4cc(OC)c(OC)cc4ccc23)c1	> 100
Cn1c(COC(=O)Nc2ccccc2)c(COC(=O)Nc2ccccc2)c2ccc3cc(Cl)c(Cl)cc3c21	7.5
CCNC(=O)Nc1cccc(NC(=O)NCC)n1	> 100
